Source: patent US11377456B2, “Crystalline form of Remdesivir” (Apotex Inc., priority 2020, dated 2022)

Assays:
[1] = Comparative intrinsic dissolution testing (Wood's apparatus); assay type: physicochemical; details: 900 mL distilled water, 37° C., 50 rpm, sample compressed at 1.5 metric tons for 1 minute
Method: Intrinsic dissolution rate (IDR) measurements were performed using a Wood's apparatus. Samples were prepared by compressing an amount (267 mg Form II; 258 mg APO-I) of sample at 1.5 metric tons for 1 minute. A dissolution medium consisting of 900 mL distilled water maintained at 37° C., and rotation speed of 50 rpm, was used for each experiment.

[2] = PXRD study of crystalline form stability in a 27° C./60% RH stability chamber; assay type: physicochemical; details: capped and uncapped samples, at least 5 weeks
Method: Remdesivir Form APO-I can be characterized by a PXRD diffractogram comprising, among other peaks, characteristic peaks, expressed in degrees 2θ (±0.2°), at 4.0°, 17.0° and 20.3°. Preferably, the PXRD diffractogram further comprises at least three peaks, expressed in degrees 2θ (±0.2°), selected from the group consisting of 10.4°, 13.0°, 14.1°, 15.3°, 17.5°, 18.3°, 22.1°, 23.9°, 25.1° and 25.9°. More preferably, the PXRD diffractogram further comprises peaks, expressed in degrees 2θ (±0.2°), at 10.4°, 13.0°, 14.1°, 15.3°, 17.5°, 18.3°, 22.1°, 23.9°, 25.1° and 25.9°.
The PXRD diffractogram was recorded on a Bruker D8 Discover powder X-ray diffractometer (Bruker-AXS, Karlsruhe, Germany). The generator was a Micro-focus X-ray source (Incoatec IμS Cu anode, λ=1.54060 Å) with a voltage of 50 kV and current of 1.00 mA. X-rays were focused with a micro mask 0.1 mm plug-in microslit. One frame was collected using a still scan with a PILATUS3 R 100K-A detector at the distance of 154.72 mm from the sample. Raw data was evaluated using the program EVA (Bruker-AXS, Karlsruhe, Germany).

Row | Intrinsic Dissolution Rate [1] [mg min^−1 cm^−2] | Compound | Change in crystalline form by PXRD (polymorphic stability) [2]
1 | 0.0083 | CCC(CC)COC(=O)[C@H](C)N[P@](=O)(OC[C@H]1O[C@@](C#N)(c2ccc3c(N)ncnn23)[C@H](O)[C@@H]1O)Oc1ccccc1 [Remdesivir Form II, reference compound] | –
2 | 0.013 | CCC(CC)COC(=O)[C@H](C)N[P@](=O)(OC[C@H]1O[C@@](C#N)(c2ccc3c(N)ncnn23)[C@H](O)[C@@H]1O)Oc1ccccc1 [Remdesivir Form APO-I] | no change in the crystalline form occurred
